Where two headings read alike, the source gives them in different places.
Columns and labels:
[1] = test system: L. mexicana Cas9; experiment: Resazurin drug sensitivity assay, LmexCas9; type: cell-based, Leishmania mexicana; conditions: read-out: LmexCas9 EC50
Description: (§1) EC50 values were determined by plotting to an equation for a sigmoid curve with variable slope (GraphPad Prism 8). All values were the average of at least three independent determinations on different days.

[2] = test system: L. mexicana SUPKO+TcoAT1; experiment: microbe, parasite or virus in culture; type: cell-based, Leishmania mexicana; conditions: for EC50: read-out: SUPKO+TcoAT1 EC50; for SUPKO+TcoAT1 RF (SUPKO): Resistance Factor relative to SUPKO
Description: as §1

[3] = test system: L. mexicana SUPKO+TvxNT3; experiment: microbe, parasite or virus in culture; type: cell-based, Leishmania mexicana; conditions: for EC50: read-out: SUPKO+TvxNT3 EC50; for SUPKO+TvxNT3 RF (SUPKO): Resistance Factor relative to SUPKO
Description: as §1

[4] = test system: L. mexicana SUPKO; experiment: microbe, parasite or virus in culture; type: cell-based, Leishmania mexicana; conditions: for SUPKO RF (Cas9): Resistance Factor = EC50(SUPKO)/EC50(Cas9)
Description: as §1

[5] = test system: T. congolense IL3000; experiment: Alamar Blue (resazurin) assay, T. congolense IL3000; type: cell-based, Trypanosoma congolense; conditions: Trypanosoma congolense, read-out: T. congolense IL3000 EC50
Description: as §1

[6] = test system: T. congolense 6C3; experiment: microbe, parasite or virus in culture; type: cell-based, Trypanosoma congolense; conditions: for EC50: Trypanosoma congolense, diminazene resistant strain, resazurin, read-out: T. congolense 6C3 EC50; for T. congolense 6C3 RF: resistance factor = EC50 (test strain)/EC50(control strain)
Description: as §1

[7] = test system: T.b.b. B48; experiment: Alamar Blue (resazurin) assay, T. b. brucei B48; type: cell-based, Trypanosoma brucei brucei; conditions: Trypanosoma brucei, read-out: T.b.b. B48 EC50
Description: as §1

[8] = test system: T. evansi; experiment: Alamar Blue (resazurin) assay, T. evansi; type: cell-based, Trypanosoma evansi; conditions: Trypanosoma evansi, read-out: T. evansi EC50
Description: as §1

[9] = test system: T. equiperdum; experiment: Alamar Blue (resazurin) assay, T. equiperdum; type: cell-based, Trypanosoma equiperdum; conditions: Trypanosoma equiperdum, read-out: T. equiperdum EC50
Description: as §1

[10] = Resazurin toxicity assay on human embryonic kidney cells; type: cell-based; conditions: human
Description: as §1

[11] = test system: human embryonic kidney (HEK) cells; experiment: as above; type: cell-based; conditions: for SI T. congolense: selectivity index = EC50 (HEK cells)/EC50 (T. congolense); for SI T. equiperdum: selectivity index = EC50 (HEK cells)/EC50 (T. equiperdum); for SI T. evansi: selectivity index = EC50 (HEK cells)/EC50 (T. evansi)
Description: as §1

[12] = test system: T. vivax; set-up: method as in Mabille et al. [69]; conditions: added for comparison only; ref Mabille et al. [69]; cited from earlier work
[13] = target: TcoAT1; type: cell-based, Trypanosoma congolense
Excerpt: (§2) The information for the T. congolense adenosine transporter (TcoAT1) and four putative T. vivax nucleoside transporters was obtained in the TritrypDB (tritrypdb.org/tritrypdb) genome database. Primers were designed to flank each gene upstream of the 5′ end (forward) and downstream of the 3′ end (reverse) as described (primer sequences in Supplementary Table S2). Following amplification from the genomic DNA of T. congolense or T. vivax, DNA for each extracted gene was ligated into the pNUS-HcN expression vector doubly digested with NdeI using the NEBuilder kit according to the manufacturer’s instructions (New England Biolabs). Construct was transformed into competent E. coli cells, and ligation was confirmed by restriction enzyme digestion of isolated plasmid DNA followed by Sanger sequencing (Source BioScience, Nottingham, UK). Confirmed plasmids were then transfected into L. mexicana cell line in which both NT1 and NT2 were doubly knocked out (SUPKO) and derived from L. mexicana Cas9 [64] as described. Clones grown in medium containing 50 μg/mL neomycin (G418) were collected for further confirmation by PCR with genomic DNA using a forward primer of the transporter gene and a reverse primer of the plasmid.
(§3) Uptake assays using radiolabeled trypanocides and/or nucleosides were carried out as described previously. Briefly, parasite cultures were harvested, washed twice in assay buffer (33 mM HEPES, 98 mM NaCl, 4.6 mM KCl, 0.5 mM CaCl2, 0.07 mM MgSO4, 5.8 mM NaH3PO4, 0.03 mM MgCl2, 23 mM NaHCO3, 14 mM D-glucose, pH 7.3), then resuspended and adjusted to a density of 1 × 10^8 cells/mL in assay buffer. The radiolabeled permeant in the presence or absence of different concentrations of potential inhibitors reconstituted in 100 μL assay buffer was deposited on top of 250 μL oil mix in microcentrifuge tubes; 1 × 10^7 parasites in 100 μL assay buffer were added to the tube and incubated for a pre-determined interval. The reaction was stopped by the addition of 1 mL of a high concentration of ice-cold unlabeled substrate in assay buffer (‘stop solution’) and centrifugation, or by immediate centrifugation at […] as appropriate. The microcentrifuge tubes were flash-frozen, and the bottom of each tube containing the cell pellet was cut off and transferred to a scintillation vial. Cell pellets were lysed in 2% SDS, after which scintillation fluid (Scintlogic U, Lablogic) was added, followed by overnight incubation in the dark. Scintillation was measured in a 300SL (Hidex) scintillation counter (Hidex). All the assays were conducted in triplicate and analysis was carried out using Microsoft Excel and GraphPad Prism. All kinetic parameters were obtained on at least 3 separate occasions.
(§4) The dose-dependent uptake assay allowed for the affinity of nucleoside analogs to different nucleoside transporters to be determined by measuring the extent to which the analogs compete with and inhibit the uptake of radiolabel adenosine. This allowed for the determination of biochemical parameters such as Km and Vmax through the application of the Michaelis–Menten equation V0 = Vmax([substrate]/([substrate] + Km)). The 50% Inhibitory Concentration (IC50) of the purines and pyrimidines and their analogs was determined from non-linear regression to sigmoid curves with variable slope (Prism 8), and the IC50 of the inhibitor and the Km of the labeled permeant were then used to calculate the inhibition constant (Ki) of the analogs through the Cheng–Prusoff equation: Ki = IC50/(1 + (L/Km)), where L denotes the radiolabel concentration. The calculated Ki was in turn used to determine the Gibbs free energy (ΔG^0) of the inhibitor–transporter interaction using the equation: ΔG^0 = -RTln(Ki), where R represents the gas constant and T symbolizes the absolute temperature in Kelvin [104].

[14] = target: TvxNT3 (Trypanosoma vivax, UniProt F9WV62); experiment: cell-based; type: cell-based; conditions: Gibbs free energy of interaction, from Km or Ki
Chain of TvxNT3 (F9WV62 entry or part of it): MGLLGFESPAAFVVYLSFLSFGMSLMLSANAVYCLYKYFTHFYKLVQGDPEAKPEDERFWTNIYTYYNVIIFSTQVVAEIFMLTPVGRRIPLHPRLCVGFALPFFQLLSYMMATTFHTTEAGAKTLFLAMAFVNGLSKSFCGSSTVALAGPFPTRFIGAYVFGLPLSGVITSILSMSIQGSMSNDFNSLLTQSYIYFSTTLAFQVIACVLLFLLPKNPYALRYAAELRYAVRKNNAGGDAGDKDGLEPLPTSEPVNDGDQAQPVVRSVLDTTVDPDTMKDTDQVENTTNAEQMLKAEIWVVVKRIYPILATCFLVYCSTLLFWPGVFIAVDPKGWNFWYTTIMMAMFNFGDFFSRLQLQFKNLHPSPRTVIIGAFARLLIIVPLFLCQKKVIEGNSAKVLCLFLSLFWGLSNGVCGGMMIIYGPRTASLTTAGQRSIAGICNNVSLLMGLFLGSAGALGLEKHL
Excerpt: as §2, §3, §4

[15] = test system: T. vivax; experiment: T. vivax EC50 (from Mabille et al.); type: cell-based, Trypanosoma vivax; conditions: from Table 8 data
[16] = test system: T. congolense IL3000; set-up: method as in Hulpia et al. [38]; conditions: values marked *; ref Hulpia et al. [38]; cited from earlier work
[17] = test system: T. congolense 6C3; set-up: method as in Hulpia et al. [38]; conditions: values marked *; ref Hulpia et al. [38]; cited from earlier work
[18] = test system: T.b.b. B48; set-up: method as in Hulpia et al. [38]; conditions: compound marked *; ref Hulpia et al. [38]; cited from earlier work
[19] = test system: T. evansi; set-up: method as in Hulpia et al. [38]; conditions: compound marked *; ref Hulpia et al. [38]; cited from earlier work
[20] = test system: T. equiperdum; set-up: method as in Hulpia et al. [38]; conditions: compound marked *; ref Hulpia et al. [38]; cited from earlier work
[21] = Leishmania mexicana, read-out: SUPKO EC50, resazurin, promastigotes

SMILES	EC50 ([1]; Leishmania mexicana)	EC50 ([2]; Leishmania mexicana)	SUPKO+TcoAT1 RF (SUPKO) [2]	EC50 ([3]; Leishmania mexicana)	SUPKO+TvxNT3 RF (SUPKO) [3]	EC50 [4, 21]	SUPKO RF (Cas9) [4]	EC50 [5]	EC50 [6]	T. congolense 6C3 RF [6]	EC50 [7]	EC50 [8]	EC50 [9]	EC50 [10]	SI T. congolense [11]	SI T. equiperdum [11]	SI T. evansi [11]	EC50 [12]	also measured
Nc1ncnc2c1c(C(F)(F)F)cn2[C@@H]1O[C@H](CO)[C@@H](O)[C@H]1O [FH6367, 7-trifluoromethyl-7-deazaadenosine]	26100 ± 6400 nM	3790 ± 340 nM	>26.4	7400 ± 1400 nM	>13.5	> 100000 nM	>3.83	1800 ± 440 nM	890 ± 170 nM	0.50	900 ± 130 nM	680 ± 110 nM	190 ± 30 nM	490 ± 10 nM	0.3	2.6	0.7	820 ± 90 nM	
Nc1ncnc2c1c(Br)cn2[C@@H]1O[C@H](CO)C[C@H]1O [FH7429_u, 7-bromo-7-deaza-3′-deoxyadenosine]	27300 ± 7000 nM	27000 ± 5800 nM	>7.4	42900 ± 12000 nM	>2.33	> 250000 nM	>3.6	0.69 ± 0.07 nM	0.49 ± 0.09 nM	0.71	4.8 ± 0.5 nM	0.9 ± 0.22 nM	0.51 ± 0.07 nM	2180 ± 410 nM	3158	4271	2430	18 ± 3 nM	Ki ([13]; 0.05 µM [3H]-adenosine, 10 s, IC50 converted to Ki, read-out: Ki on the transport of [3H]-adenosine): 259000 ± 11000 nM; ΔG0 ([13]; Gibbs free energy of binding, from Km or Ki): -4.9 kcal/mol; ΔG0 [14]: -5.14 kcal/mol
Nc1ncnc2c1c(-c1ccccn1)cn2[C@@H]1O[C@H](CO)[C@@H](O)[C@H]1O [TH1008]							>8.5			0.33					110	303	466	12900 ± 4400 nM	EC50 ([1]; resazurin, promastigotes): 11700 ± 500 nM; EC50 ([2]; resazurin, promastigotes): > 100000 nM; EC50 ([3]; resazurin, promastigotes): > 100000 nM; EC50 ([4]; resazurin, promastigotes, read-out: SUPKO EC50): > 100000 nM; fold higher EC50 against T. vivax compared to T. congolense [15]: 10–165 fold; EC50 ([11]; resazurin, 96 well plates, read-out: HEK EC50): 18500 ± 1500 nM; EC50 [16]: 170 ± 50 nM; EC50 [17]: 56 ± 13 nM; EC50 [18]: 390 ± 30 nM; EC50 [19]: 40 ± 5 nM; EC50 [20]: 61 ± 5 nM
